Measured values as given in publication PMC5515969, “Effects of 31 FDA approved small-molecule kinase inhibitors on isolated rat liver mitochondria” (Archives of Toxicology, 2016).
Like-named read-outs stand apart in the source and are kept apart here.

Tests used:
[1] = system: isolated rat liver mitochondria; test: Mitochondrial oxygen consumption (glutamate/malate or succinate driven, state 4 and state 3); type: biochemical; settings: DMSO treated samples set as 1; on State 3 respiration driven by succinate at 10XCmax: key: 0 indicates that the drug had no effects (negative); on State 3 respiration driven by succinate at 1XCmax: key: 0 indicates that the drug had no effects (negative)
Method in brief: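 Oxygen uptake on glutamate/malate or on succinate defined state 4; ADP added 3 min later gave state 3. Mitochondria isolated from rat liver by differential centrifugation, adjusted to 1 mg/ml and pretreated 5 min with inhibitor (0.1% DMSO final). Values relative to DMSO control, set to 1.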

[2] = target: T1, RCC II (Rattus norvegicus, UniProt P21913+Q641Z9+Q6PCT8+Q920L2); test: RCC II activity in submitochondrial particles; type: biochemical; set-up: key: activity relative to DMSO-treated controls (control set as 1 = 100%)
T1 construct: Submitochondrial particles were prepared by subjecting the intact mitochondria to three successive freeze–thaw cycles; from tissue; host or cells: rat liver mitochondria, used as submitochondrial particles
Method in brief: (§1)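 Abs 340 nm (I/V) or 600 nm (II), 1-min reads × 6 min; 550 nm (III, IV), 10-s reads × 2 min. RCC I = rotenone-free minus rotenone rate. DMSO control = 1.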

[3] = system: RCC III; test: RCC III activity in submitochondrial particles; type: biochemical, rat; set-up: key to RCC III at 100XCmax: activity relative to DMSO-treated controls (control set as 1 = 100%); settings: 100XCmax
Method in brief: as §1

[4] = system: RCC IV; test: RCC IV activity in submitochondrial particles; type: biochemical, rat; set-up: key to RCC IV at 50XCmax / RCC IV at 100XCmax: activity relative to DMSO-treated controls (control set as 1 = 100%); settings: 50XCmax, in %
Method in brief: as §1

[5] = system: RCC V; test: RCC V activity in submitochondrial particles; type: biochemical, rat; on RCC V at 5XCmax: key: 0 indicates that the drug had no effects (negative)
Method in brief: as §1

[6] = system: isolated rat liver mitochondria; test: Mitochondrial inner membrane potential (MMP), Rhodamine 123; type: biochemical; settings: difference in signal between KI and DMSO treated samples at the end of experiments
Text: Fig. 3 KI effects on mitochondrial inner membrane potential (MMP). […] In a, c, data are means and standard derivations from three separate experiments. *p < 0.05 as compared to DMSO-treated samples at the end of experiments. In b, data are means of two independent experiments

[7] = system: isolated rat liver mitochondria; settings: positive control alamethicin treated samples
[8] = ref product labeling, cited from earlier work
[9] = system: isolated rat liver mitochondria; test: Mitochondrial ROS production (CM-H2DCFDA); settings: DMSO treated samples set as 1
[10] = relative to DMSO treated samples

T1 sequence (Q920L2 35-656): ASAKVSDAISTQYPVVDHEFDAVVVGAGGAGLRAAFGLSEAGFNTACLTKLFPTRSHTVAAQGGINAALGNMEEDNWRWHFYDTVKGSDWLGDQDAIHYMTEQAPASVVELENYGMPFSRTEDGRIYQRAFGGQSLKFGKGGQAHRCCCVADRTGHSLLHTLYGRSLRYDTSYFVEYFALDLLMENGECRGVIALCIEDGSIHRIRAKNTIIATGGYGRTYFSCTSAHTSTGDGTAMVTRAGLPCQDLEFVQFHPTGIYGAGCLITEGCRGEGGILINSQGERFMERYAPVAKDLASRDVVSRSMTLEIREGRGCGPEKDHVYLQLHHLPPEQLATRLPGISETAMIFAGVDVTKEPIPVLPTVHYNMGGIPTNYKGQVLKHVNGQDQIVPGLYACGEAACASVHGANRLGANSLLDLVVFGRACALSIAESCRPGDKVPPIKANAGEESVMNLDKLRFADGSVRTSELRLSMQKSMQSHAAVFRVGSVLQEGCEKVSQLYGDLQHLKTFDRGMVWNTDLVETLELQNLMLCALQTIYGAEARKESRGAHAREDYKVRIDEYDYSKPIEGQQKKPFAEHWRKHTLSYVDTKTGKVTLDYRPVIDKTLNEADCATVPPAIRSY
T1 sequence (P21913 31-282): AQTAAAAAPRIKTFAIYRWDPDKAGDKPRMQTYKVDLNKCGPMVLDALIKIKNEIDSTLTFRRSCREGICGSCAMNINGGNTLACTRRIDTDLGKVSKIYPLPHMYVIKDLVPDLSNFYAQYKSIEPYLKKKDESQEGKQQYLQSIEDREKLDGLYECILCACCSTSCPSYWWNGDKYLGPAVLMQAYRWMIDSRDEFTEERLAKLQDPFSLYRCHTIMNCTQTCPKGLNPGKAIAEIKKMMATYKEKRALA
T1 sequence (Q641Z9 1-169): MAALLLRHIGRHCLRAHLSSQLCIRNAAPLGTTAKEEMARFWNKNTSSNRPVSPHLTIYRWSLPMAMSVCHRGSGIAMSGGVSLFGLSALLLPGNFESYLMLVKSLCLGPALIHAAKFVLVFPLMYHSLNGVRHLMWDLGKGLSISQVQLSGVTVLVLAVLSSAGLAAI
T1 sequence (Q6PCT8 57-159): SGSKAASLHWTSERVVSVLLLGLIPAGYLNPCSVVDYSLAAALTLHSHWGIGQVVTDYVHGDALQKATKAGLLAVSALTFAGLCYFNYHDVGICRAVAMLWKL

CN(C)C/C=C/C(=O)Nc1cc2c(Nc3ccc(F)c(Cl)c3)ncnc2cc1O[C@H]1CCOC1 [afatinib dimaleate]
State 3 respiration driven by glutamate/malate at 1XCmax [1]: 0 | State 3 respiration driven by succinate at 1XCmax [1]: 0 | State 4 respiration driven by glutamate/malate at 1XCmax [1]: 0 | State 4 respiration driven by succinate at 1XCmax [1]: 0 | State 3 respiration driven by glutamate/malate at 2.5XCmax [1]: 0 | State 3 respiration driven by succinate at 2.5XCmax [1]: 0 | State 4 respiration driven by glutamate/malate at 2.5XCmax [1]: 0 | State 4 respiration driven by succinate at 2.5XCmax [1]: 0 | State 3 respiration driven by glutamate/malate at 5XCmax [1]: 0 | State 3 respiration driven by succinate at 5XCmax [1]: 0 | State 4 respiration driven by glutamate/malate at 5XCmax [1]: 0 | State 4 respiration driven by succinate at 5XCmax [1]: 0 | State 3 respiration driven by glutamate/malate at 10XCmax [1]: 0 | State 3 respiration driven by succinate at 10XCmax [1]: 0 | State 4 respiration driven by glutamate/malate at 10XCmax [1]: 0 | State 4 respiration driven by succinate at 10XCmax [1]: 0 | State 3 respiration driven by glutamate/malate at 20XCmax [1]: 0 | State 3 respiration driven by succinate at 20XCmax [1]: 0 | State 4 respiration driven by glutamate/malate at 20XCmax [1]: 0 | State 4 respiration driven by succinate at 20XCmax [1]: 0 | State 3 respiration driven by glutamate/malate at 30XCmax [1]: 0 | State 3 respiration driven by succinate at 30XCmax [1]: 0 | State 4 respiration driven by glutamate/malate at 30XCmax [1]: 0 | State 4 respiration driven by succinate at 30XCmax [1]: 0 | State 3 respiration driven by glutamate/malate at 50XCmax [1]: 0 | State 3 respiration driven by succinate at 50XCmax [1]: 0 | State 4 respiration driven by glutamate/malate at 50XCmax [1]: 0 | State 4 respiration driven by succinate at 50XCmax [1]: 0 | State 3 respiration driven by glutamate/malate at 100XCmax [1]: 0 | State 3 respiration driven by succinate at 100XCmax [1]: 0 | State 4 respiration driven by glutamate/malate at 100XCmax [1]: 0 | State 4 respiration driven by succinate at 100XCmax [1]: 0 | RCC II at 1.0XCmax ([2]; DMSO treated samples set as 1): 0 | RCC II at 2.5XCmax ([2]; DMSO treated samples set as 1): 0 | RCC II at 5XCmax ([2]; DMSO treated samples set as 1): 0 | RCC II at 10XCmax ([2]; DMSO treated samples set as 1): 0 | RCC II at 20XCmax ([2]; DMSO treated samples set as 1): 0 | RCC II at 30XCmax ([2]; DMSO treated samples set as 1): 0 | RCC II at 50XCmax ([2]; DMSO treated samples set as 1): 0 | RCC II at 100XCmax ([2]; DMSO treated samples set as 1): 0 | RCC III at 100XCmax [3]: 0 | RCC IV at 50XCmax ([4]; DMSO treated samples set as 1): 0 | RCC V at 5XCmax ([5]; DMSO treated samples set as 1): 0 | RCC V at 50XCmax ([5]; DMSO treated samples set as 1): 0 | MMP measured by Rhodamine 123 at 1XCmax [6]: 0 | MMP measured by Rhodamine 123 at 2.5XCmax [6]: 0 | MMP measured by Rhodamine 123 at 5XCmax [6]: 0 | MMP measured by Rhodamine 123 at 10XCmax [6]: 0 | MMP measured by Rhodamine 123 at 20XCmax [6]: 0 | MMP measured by Rhodamine 123 at 30XCmax [6]: 0 | MMP measured by Rhodamine 123 at 50XCmax [6]: 0 | MMP measured by Rhodamine 123 at 100XCmax [6]: 0 | Cytochrome c release 1XCmax [7]: 0 | Cytochrome c release 2.5XCmax [7]: 0 | Cytochrome c release 5XCmax [7]: 0 | Cytochrome c release 10XCmax [7]: 0 | Cytochrome c release 20XCmax [7]: 0 | Cytochrome c release 30XCmax [7]: 0 | Cytochrome c release 50XCmax [7]: 0 | Cytochrome c release 100XCmax [7]: 0 | DILI potential (based on labeling) ([8]; 1 DILI positive, 0 negative according to labeling): 1 | Labeling for DILI ([8]; BBW: black box warning, W&P: Warnings and Precautions): W&P: ALT↑ | ROS measured by CM-H2DCFDA at 1XCmax [9]: 0 | ROS measured by CM-H2DCFDA at 2.5XCmax [9]: 0 | ROS measured by CM-H2DCFDA at 5XCmax [9]: 0 | ROS measured by CM-H2DCFDA at 10XCmax [9]: 0 | ROS measured by CM-H2DCFDA at 20XCmax [9]: 0 | ROS measured by CM-H2DCFDA at 30XCmax [9]: 0 | ROS measured by CM-H2DCFDA at 50XCmax [9]: 0 | ROS measured by CM-H2DCFDA at 100XCmax [9]: 0

Cc1nc(Nc2ncc(C(=O)Nc3c(C)cccc3Cl)s2)cc(N2CCN(CCO)CC2)n1 [dasatinib (free base)]
State 3 respiration driven by glutamate/malate at 1XCmax [1]: 0 | State 3 respiration driven by succinate at 1XCmax [1]: 0 | State 4 respiration driven by glutamate/malate at 1XCmax [1]: 0 | State 4 respiration driven by succinate at 1XCmax [1]: 0 | State 3 respiration driven by glutamate/malate at 2.5XCmax [1]: 0 | State 3 respiration driven by succinate at 2.5XCmax [1]: 0 | State 4 respiration driven by glutamate/malate at 2.5XCmax [1]: 0 | State 4 respiration driven by succinate at 2.5XCmax [1]: 0 | State 3 respiration driven by glutamate/malate at 5XCmax [1]: 0 | State 3 respiration driven by succinate at 5XCmax [1]: 0 | State 4 respiration driven by glutamate/malate at 5XCmax [1]: 0 | State 4 respiration driven by succinate at 5XCmax [1]: 0 | State 3 respiration driven by glutamate/malate at 10XCmax [1]: 0 | State 3 respiration driven by succinate at 10XCmax [1]: 0 | State 4 respiration driven by glutamate/malate at 10XCmax [1]: 0 | State 4 respiration driven by succinate at 10XCmax [1]: 0 | State 3 respiration driven by glutamate/malate at 20XCmax [1]: 0 | State 3 respiration driven by succinate at 20XCmax [1]: 0 | State 4 respiration driven by glutamate/malate at 20XCmax [1]: 0 | State 4 respiration driven by succinate at 20XCmax [1]: 0 | State 3 respiration driven by glutamate/malate at 30XCmax [1]: 0 | State 3 respiration driven by succinate at 30XCmax [1]: 0 | State 4 respiration driven by glutamate/malate at 30XCmax [1]: 0 | State 4 respiration driven by succinate at 30XCmax [1]: 0 | State 3 respiration driven by glutamate/malate at 50XCmax [1]: 0 | State 3 respiration driven by succinate at 50XCmax [1]: 0 | State 4 respiration driven by glutamate/malate at 50XCmax [1]: 0 | State 4 respiration driven by succinate at 50XCmax [1]: 0 | State 3 respiration driven by glutamate/malate at 100XCmax [1]: 0 | State 3 respiration driven by succinate at 100XCmax [1]: 0 | State 4 respiration driven by glutamate/malate at 100XCmax [1]: 0 | State 4 respiration driven by succinate at 100XCmax [1]: 0 | RCC II at 1.0XCmax [2, 10]: 0 | RCC II at 2.5XCmax [2, 10]: 0 | RCC II at 5XCmax [2, 10]: 0 | RCC II at 10XCmax [2, 10]: 0 | RCC II at 20XCmax [2, 10]: 0 | RCC II at 30XCmax [2, 10]: 0 | RCC II at 50XCmax [2, 10]: 0 | RCC II at 100XCmax [2, 10]: 0 | RCC III at 100XCmax [3, 10]: 0 | RCC IV at 50XCmax [4, 10]: 0 | RCC V at 5XCmax [5, 10]: 0 | RCC V at 50XCmax [5, 10]: 0 | MMP measured by Rhodamine 123 at 1XCmax [6]: 0 | MMP measured by Rhodamine 123 at 2.5XCmax [6]: 0 | MMP measured by Rhodamine 123 at 5XCmax [6]: 0 | MMP measured by Rhodamine 123 at 10XCmax [6]: 0 | MMP measured by Rhodamine 123 at 20XCmax [6]: 0 | MMP measured by Rhodamine 123 at 30XCmax [6]: 0 | MMP measured by Rhodamine 123 at 50XCmax [6]: 0 | MMP measured by Rhodamine 123 at 100XCmax [6]: 0 | Cytochrome c release 1XCmax [7]: 0 | Cytochrome c release 2.5XCmax [7]: 0 | Cytochrome c release 5XCmax [7]: 0 | Cytochrome c release 10XCmax [7]: 0 | Cytochrome c release 20XCmax [7]: 0 | Cytochrome c release 30XCmax [7]: 0 | Cytochrome c release 50XCmax [7]: 0 | Cytochrome c release 100XCmax [7]: 0 | DILI potential (based on labeling) ([8]; 1 = DILI positive, 0 = negative): 0 | ROS measured by CM-H2DCFDA at 1XCmax [9]: 0 | ROS measured by CM-H2DCFDA at 2.5XCmax [9]: 0 | ROS measured by CM-H2DCFDA at 5XCmax [9]: 0 | ROS measured by CM-H2DCFDA at 10XCmax [9]: 0 | ROS measured by CM-H2DCFDA at 20XCmax [9]: 0 | ROS measured by CM-H2DCFDA at 30XCmax [9]: 0 | ROS measured by CM-H2DCFDA at 50XCmax [9]: 0 | ROS measured by CM-H2DCFDA at 100XCmax [9]: 0
